According to PMC9180170, “Amentoflavone Promotes Cellular Uptake and Degradation of Amyloid-Beta in Neuronal Cells” (International Journal of Molecular Sciences, 2022):

Assays:
[1] = tested on: N2a cells; test: Aβ uptake assay with fluorescently labeled Aβ in N2a cells; type: cell-based, mouse; settings: for effect on cellular uptake of TAMRA-Aβ1-40 (in words): 200 nM TAMRA-Aβ1-40, various concentrations of compound; for increase in Aβ1-40 uptake: fluorometry
Description: Fluorescent conjugated Aβ peptides were ≥95% in purity as determined by the HPLC method per the vendor (AnaSpec; Fremont, CA, USA). These peptides were dissolved in dimethyl sulfoxide to make 100 μM stock solutions, aliquoted, and stored at −80 °C until use. The fluorescent intensity and protein concentration of each peptide was determined as described below to calculate their specific activities (fluorescent intensity per mg of the conjugated peptide).
(§1) The Aβ uptake assay was performed as described, with modifications. N2a cells were seeded in a 24-well culture plate (2 × 10^5 cells/well) the day prior to the experiments. The next day (cell density at near confluency), cells were rinsed twice with warmed (37 °C) DMEM and incubated in DMEM containing 0.1% bovine serum albumin, 200 nM fluorescently labeled Aβ in the presence or absence of various concentrations of test compounds in a final volume of 200 µL. Cells were then incubated at 37 °C for three hours in the humidified CO2 incubator. The culture plate was placed on ice and the reaction medium was collected in a 1.5-mL microcentrifuge tube. Cells were rinsed twice with phosphate-buffered saline (PBS) containing 137 mM NaCl, 2.7 mM KCl, 10 mM Na2HPO4, and 1.8 mM KH2PO4 (pH: 7.4). To cleave cell surface-bound Aβ and extracellular matrix proteins, cells were treated with 0.05% trypsin in 200 µL PBS at room temperature on an orbital shaker for 5 min. Detached cells were transferred to a microcentrifuge tube and centrifuged at 5000× g for 5 min using a bench-top centrifuge (Thermo Fisher Scientific, Waltham, MA, USA). The supernatant and cell pellet were separated and kept at −80 °C until analysis. Cells were lysed in a buffer containing 20 mM HEPES (pH 7.4), 7.5 mM MgCl2, 1% sodium dodecyl sulfate, 1% Triton X-100, and Complete protease inhibitor cocktail (Sigma-Aldrich, St. Louis, MO, USA). The cell lysate was centrifuged at 10,000× g at 4 °C for 10 min. The fluorescent intensity was measured at λEX = 490 and λEM = 520 for FAM, and λEX = 545 and λEM = 575 for TAMRA using a Biotek Synergy HT plate reader (Winooski, VT). Protein concentrations of the cell lysates were determined using a BCA assay kit (Sigma-Aldrich, St. Louis, MO, USA). The fluorescent intensity of each sample was used to calculate an amount of Aβ in pmole and normalized to protein content. Cellular uptake of Aβ was expressed as pmole/mg protein.

[2] = tested on: N2a cells; test: Immunoblotting of internalized Aβ1-40 in cell lysates; type: cell-based, mouse; settings: for effect on intracellular levels of full-length (~4-kDa) monomeric Aβ1-40: N2a cells, unlabeled Aβ1-40, 3 h, 10 μM AMF or leupeptin 100 μg/mL, SDS-PAGE and immunoblotting, normalized to α-tubulin
Description: To examine the integrity of Aβ1-40 taken up into neuronal cells, N2a cells were treated with the lysosomal enzyme inhibitor, leupeptin (100 μg/mL), unlabeled Aβ1-40 peptide in the presence or absence of AMF and for 3 h, and cell lysates were subjected to SDS-PAGE followed by immunoblotting with an anti-Aβ1-40 antibody (Figure 4A,B). We observed that the intracellular levels of the full-length (~4-kDa), monomeric Aβ1-40 was increased in the presence of AMF (Figure 4A,B). […] The internalized Aβ1-40 was almost completely degraded within 3 h when N2a cells were incubated with Aβ1-40 for 3 h followed by incubation in the Aβ1-40-free culture medium (washout) for an additional 3 h (Figure 4A,B).
An equal amount of protein samples (5 µg/lane) was separated on a 4–20% gradient tris-tricine gel (Bio-Rad, Hercules, CA, USA) per our published protocol. The gel was transferred to a nitrocellulose membrane (Bio-Rad) at 4 °C for 3 h. Blots were blocked with PBS containing 5% dry milk for 1 h and incubated in PBS solution containing an anti-Aβ antibody HJ2 (1:2000 dilution) or anti-α-tubulin antibody (1:5000 dilution, Sigma-Aldrich). After washing, blots were incubated with goat anti-mouse IgG conjugated with horseradish peroxidase (Bio-Rad, Hercules, CA, USA). The signal was visualized using the HRP chemiluminescent kit (ThermoFisher Scientific, Waltham, MA, USA), and photographic images were taken using a Syngene gel imaging system (Frederick, MD, USA).

[3] = tested on: N2a cells; test: Aβ uptake assay with pharmacologic inhibitors of endocytosis; type: cell-based, mouse; settings: for effect on TAMRA-Aβ1-40 uptake with or without AMF (in words): in the presence or absence of 10 μM AMF, heparin 20 U/mL, cytochalasin D 0.4 or 2 μg/mL
Description: as §1
To examine the role of receptor-mediated endocytosis on AMF-induced promotion of Aβ1-40 uptake, we performed the Aβ uptake assay utilizing pharmacologic inhibitors of endocytosis. […] Thirty minutes later, cells were subjected to the Aβ uptake assay with or without 10 μM AMF as described above.

[4] = tested on: N2a cells; test: Lactate dehydrogenase (LDH) activity assay for cytotoxicity; type: cell-based, mouse; settings: 24 h
Description: The cytotoxicity of Aβ species in N2a cells was assessed using an LDH activity assay kit according to the manufacturer’s protocol (Sigma-Aldrich, St. Louis, MO, USA). Briefly, the Aβ uptake assay was performed as described above using FAM-Aβ1-40 or FAM-Aβ1-42. Twenty-four hours later, the incubation medium was transferred to a microcentrifuge tube and spun at 10,000× g for 5 min to remove cell debris. Triplicate samples of the assay medium were added with an equal volume of LDH master reaction mixture (50 µL/well) to each well of a 96-well plate. The optical density was measured at 37 °C for 30 min at a 5-min interval at a wavelength of 450 nm using a plate reader (Biotek, Winooski, VT, USA).

[5] = tested on: BV2 microglial cells; test: Aβ uptake assay in BV2 microglia; type: cell-based, mouse; settings: 200 nM TAMRA-Aβ1-40, 3 h, 37 °C, three independent experiments
Description: (§2) Figure 7 Amentoflavone promotes the cellular uptake of Aβ peptide in glial cells. Mouse BV2 microglial cells (A) and immortalized astrocytes (B) were incubated with or without 2 or 10 μM amentoflavone (AMF) plus 200 nM TAMRA Aβ1-40 for three hours at 37 °C. The cells were harvested, and the fluorescent intensity of TAMRA was determined by fluorometry.
(§3) N2a cells were grown in Dulbecco’s Modified Eagle Medium (DMEM) supplemented with 10% fetal bovine serum, 100 U/mL penicillin and 100 µg/mL streptomycin at 37 °C in a humidified CO2 incubator (Thermo Fisher Scientific, Waltham, MA, USA). Cells at less than five passages were used in the experiments. The immortalized BV-2 murine microglial cell line was grown and maintained in DMEM containing antibiotics and 2% fetal bovine serum. The immortalized mouse astrocyte cell line was kindly gifted by David Holtzman at Washington University in St. Louis and maintained in DMEM containing antibiotics and 10% fetal bovine serum.
(§4) The Aβ uptake assay was performed as described, with modifications. […] The fluorescent intensity was measured at λEX = 490 and λEM = 520 for FAM, and λEX = 545 and λEM = 575 for TAMRA using a Biotek Synergy HT plate reader (Winooski, VT). Protein concentrations of the cell lysates were determined using a BCA assay kit (Sigma-Aldrich, St. Louis, MO, USA). […] Cellular uptake of Aβ was expressed as pmole/mg protein.

[6] = tested on: immortalized astrocytes; test: Aβ uptake assay in immortalized astrocytes; type: cell-based; settings: immortalized mouse astrocytes, 2 or 10 μM AMF, 200 nM TAMRA-Aβ1-40, 3 h
Description: as §2, §3, §4

[7] = tested on: N2a cells; test: Aβ uptake assay with fluorescently labeled Aβ in N2a cells; type: cell-based, mouse; settings: 200 nM TAMRA-Aβ1-40, 10 μM AMF, one, three and six hours, TAMRA fluorescence liberated by trypsin digestion

O=c1cc(-c2ccc(O)cc2)oc2cc(O)cc(O)c12 [apigenin, reference compound] was tested, and the “effect on cellular uptake of TAMRA-Aβ1-40 (in words)” value (from here on “effect … of TAMRA-Aβ1-40 (in words)”) ([1]; 3 h) was “little to no effect”.

CC(=O)N[C@@H](CC(C)C)C(=O)N[C@@H](CC(C)C)C(=O)N[C@H](C=O)CCCNC(=N)N [leupeptin, reference compound] was tested, and the “effect on AMF-induced promotion of Aβ1-40 uptake” value ([1]; TAMRA-Aβ1-40, leupeptin plus 10 μM AMF, peptide remaining in the culture medium) was “did not influence” and the “effect on intracellular levels of full-length (~4-kDa) monomeric Aβ1-40” value [2] was “significantly increased”.

C=C1[C@@H](C)[C@H]2[C@H](Cc3ccccc3)NC(=O)[C@]23[C@H](OC(C)=O)/C=C/[C@@](C)(O)C(=O)[C@@H](C)C/C=C/[C@H]3[C@@H]1O [cytochalasin D] was tested, and the “effect on TAMRA-Aβ1-40 uptake with or without AMF (in words)” value ([3]; 200 nM TAMRA-Aβ1-40, 3 h) was “not blocked”.

In the case of Aβ1-40: unlabeled human Aβ1-40 peptide, the “time to almost complete degradation of internalized Aβ1-40” value ([2]; N2a cells incubated with Aβ1-40 for 3 h, then Aβ1-40-free culture medium (washout), immunoblotting) is reported as no more than 3 h.

With “ApoE particles: astrocyte-secreted apolipoprotein E particles, inhibitor of LRP-1-mediated endocytosis” the “inhibition of AMF-induced TAMRA-Aβ1-40 uptake” value ([3]; 200 nM ApoE particles plus 10 μM AMF, 3 h) was ~ 30% and the “decrease of cellular uptake of TAMRA-Aβ1-40” value ([3]; 200 nM ApoE particles, no AMF, 3 h) was ~ 75%.

For “TAMRA-Aβ1-40: Aβ1-40 conjugated with a fluorophore 5-carboxytetramethylrhodamine [reference compound]”, the “concentration of TAMRA-Aβ1-40 in the culture medium without AMF” value ([1]; 200 nM TAMRA-Aβ1-40 alone (vehicle), after 3 h, mean ± S.E.M. (n = 4)) was 189 ± 0.6 nM.

In the case of O=c1c(O)c(-c2ccc(O)c(O)c2)oc2cc(O)cc(O)c12 [quercetin, reference compound], the “effect … of TAMRA-Aβ1-40 (in words)” value ([1]; 3 h) is reported as “little to no effect”.

In the case of “FAM-Aβ1-40: 5-carboxyfluorescein-labeled Aβ1-40 [reference compound]”, the “cytotoxicity by LDH release (in words)” value ([4]; 200 nM peptide, in the absence or presence of AMF) is reported as “did not cause cell death”.

heparin was tested, and the “effect on TAMRA-Aβ1-40 uptake with or without AMF (in words)” value ([3]; 200 nM TAMRA-Aβ1-40, 3 h) was “in part attenuated”.

In the case of “FAM-Aβ1-42: FAM-labeled Aβ1-42 [reference compound]”, the “cellular uptake of labeled peptide without AMF” value ([1]; 200 nM peptide, DMEM with 0.1% BSA, 3 h, 37 °C, fluorometry of cell lysate after trypsin, mean ± S.E.M. (n = 4)) is reported as 3.34 ± 0.84 pmole/mg protein.

O=C(O[C@@H]1Cc2c(O)cc(O)cc2O[C@@H]1c1cc(O)c(O)c(O)c1)c1cc(O)c(O)c(O)c1 [EGCG, (-)-epigallocatechin gallate, reference compound] was tested, and the “effect … of TAMRA-Aβ1-40 (in words)” value ([1]; 3 h) was “little to no effect”.

In the case of fucoidan, the “effect on TAMRA-Aβ1-40 uptake without AMF (in words)” value ([3]; 200 nM TAMRA-Aβ1-40, 3 h, no AMF) is reported as “no effect” and the “TAMRA-Aβ1-40 uptake with inhibitor in the presence of AMF” value ([3]; 100 μM fucoidan (30 min pretreatment) plus 10 μM AMF, 200 nM TAMRA-Aβ1-40, 3 h, mean ± S.E.M., three independent experiments) is reported as 1.98 ± 0.17 pmole/mg protein.

In the case of O=c1cc(-c2ccc(O)c(-c3c(O)cc(O)c4c(=O)cc(-c5ccc(O)cc5)oc34)c2)oc2cc(O)cc(O)c12 [AMF, amentoflavone], the “effect on intracellular accumulation of FAM-Aβ1-40” value ([1]; 200 nM FAM-Aβ1-40, various concentrations of AMF, 3 h) is reported as “increased”, the “cellular uptake of FAM-Aβ1-42 with AMF” value ([1]; 200 nM FAM-Aβ1-42 plus 10 μM AMF, 3 h, mean ± S.E.M. (n = 4)) is reported as 7.52 ± 0.50 pmole/mg protein and the “effect on internalization of the inverted peptide FAM-Aβ42-1” value ([1]; 200 nM FAM-Aβ42-1, 10 μM AMF, 3 h) is reported as “no effect”. The “increase in Aβ1-40 uptake” value ([1]; 200 nM TAMRA-Aβ1-40, 1 μM compound, 3 h, 37 °C, mean ± S.E.M. (n = 4)) was 1.48 ± 0.05 fold, the “increase in Aβ1-40 uptake” value ([1]; 200 nM TAMRA-Aβ1-40, 3 μM compound, 3 h, 37 °C, mean ± S.E.M. (n = 4)) was 2.48 ± 0.18 fold and the “increase in Aβ1-40 uptake” value ([1]; 200 nM TAMRA-Aβ1-40, 10 μM compound, 3 h, 37 °C, mean ± S.E.M. (n = 4)) was 3.64 ± 1.12 fold. For the same molecule, the “effect … of TAMRA-Aβ1-40 (in words)” value ([1]; 3 h) was “most potent activity”, the “concentration of TAMRA-Aβ1-40 in the culture medium with AMF” value ([1]; 200 nM TAMRA-Aβ1-40 plus 10 μM AMF, after 3 h, mean ± S.E.M. (n = 4)) was 170 ± 1.6 nM and the “effect on FAM-Aβ1-42-induced LDH release” value ([4]; 200 nM FAM-Aβ1-42, co-treatment with 1, 3 and 10 μM AMF) was “significantly inhibited”. For the same molecule, the “effect on intracellular levels of full-length (~4-kDa) monomeric Aβ1-40” value [2] was “increased”, the “TAMRA-Aβ1-40 uptake with AMF, no inhibitor” value ([3]; 10 μM AMF, 200 nM TAMRA-Aβ1-40, 3 h, mean ± S.E.M., three independent experiments) was 3.01 ± 0.22 pmole/mg protein and the “increase in intracellular levels of TAMRA-Aβ1-40” value ([5]; 2 μM AMF) was 2.2 fold. The “increase in intracellular levels of TAMRA-Aβ1-40” value ([5]; 10 μM AMF) was 3.0 fold, the “effect on cellular uptake of TAMRA-Aβ1-40 in astrocytes (in words)” value [6] was “significantly increased to a similar extent” and the “effect on TAMRA-Aβ1-40 binding to cell membrane” value [7] was “significantly increased”.
